Assay results reported in ChEMBL document CHEMBL5385849, “Discovery of 1-hydroxy-2-methylquinolin-4(1H)-one derivatives as new cytochrome bd oxidase inhibitors for tuberculosis therapy” (Eur J Med Chem, 2023).

System: Mycobacterium tuberculosis
Assay: Inhibition of Mycobacterium tuberculosis harboring cydAB mutant inverted-membrane vesicle cytochrome bd oxidase assessed as reduction in oxygen consumption rate at 10 uM measured upto 4 days by Methylene blue dye based assay
Format: cell membranes
Conditions: time <= 4.0 day

SMILES | inhibition [%]
Cc1c(Cc2ccc(OC(F)(F)F)cc2)c(=O)c2ccccc2n1O | 82
CC(C)=CCC/C(C)=C/CC/C(C)=C/Cc1c(C)[nH]c2ccccc2c1=O [AURACHIN D] | 55
